From paper PMC12670317, “Targeted NAT10 Degradation by PROTAC NP1192 Suppresses Hypoxia-Adaptive Glycolysis and Reinvigorates CD8^+ Effector T‑Cell Function for Synergistic Cancer Immunotherapy” (ACS Central Science, 2025)

How the values were obtained:
[1] = system: high-grade serous ovarian carcinoma (OV) patient-derived organoids; experiment: ATP-based viability assay in patient-derived organoids, OV; type: cell-based; settings: Homo sapiens, OV PDOs, read-out: IC50, organoid viability
Experimental: Organoid culture was performed according to previously established protocols. Briefly, we procured patient-derived tissue samples provided and technically manipulated by Accurate International Biotechnology Co., Ltd. Subsequently, these samples were subjected to mechanical and enzymatic dissociation to disaggregate the tissue into single cells or small clusters, while preserving cellular integrity. Following this initial step, the isolated cells or tissue fragments were embedded within a 3D ECM scaffold, such as Matrigel or collagen. The ECM scaffold served as a supportive substrate, promoting cellular self-organization and mimicking native tissue architecture. Additionally, a precisely formulated cocktail of growth factors, cytokines, and signaling molecules tailored to the specific tissue of interest was meticulously formulated and added to the culture medium to facilitate organoid growth and maintenance.

SiHa cells [2] = experiment: Lactic acid, ATP and 2-NBDG uptake assays in SiHa cells; type: cell-based, human; settings: 20 μM, 36 h
Experimental: (§1) SiHa and U14 cells (2 × 10^5 cells per well) were plated in 6-well plates and cultured in RPMI 1640 medium or DMEM supplemented with 10% FBS and 1% penicillin–streptomycin. After cell adherence, 20 μM NP1192 or DMSO was added and incubated for 36 h, and the assays were performed according to the instruction manuals for the Lactate Assay Kit (Nanjing Jiancheng, China), ATP Assay Kit (Beyotime, China), and 2-NBDG reagent (GlpBio, US). All data analyses were performed via GraphPad Prism 9, and the data are presented as the means ± SEMs.

SiHa cells [3] = experiment: Colony formation assay in SiHa cells; type: cell-based, human; settings: pretreated 20 μM 36 h, 2 weeks
Experimental: NAT10^± SiHa cells and SiHa cells treated with DMSO, Remodelin or NP1192 for 36 h were seeded into the wells of a 6-well microplate at identical densities of 2000 or 3000 cells per well. The cells were then incubated in the incubator for at least 2 weeks to form colonies. After the incubation period, the cells were fixed with formalin and then stained with crystal violet. The colonies were then counted via a microscope. The number and size of the colonies in the experimental groups were compared.

NP1192^Resist SiHa cells = experiment: IC50 and resistance index in NP1192-resistant SiHa cells (CCK-8); type: cell-based, human
Experimental: We generated Remodelin-resistant (Remodelin^Resist SiHa) and NP1192-resistant (NP1192^Resist SiHa) SiHa CCa cell lines by applying a stepwise dose escalation strategy, as previously described in the literature. To quantitatively assess resistance, we calculated the resistance index for each subline following the established methodologies. Briefly, 3000 cells per well were seeded in 96-well plates and treated with increasing concentrations of Remodelin or NP1192 (0, 10, 50, 100, and 150 μM) for 24 h. Following treatment, 10 μL of CCK-8 reagent was added to each well and incubated for an additional 2 h. Absorbance at 490 nm was measured, and the IC50 values were calculated using GraphPad Prism 9.0. The RI was defined as the ratio of the IC50 in resistant cells to that in parental cells.

U14 cells = experiment: Lactic acid, ATP and 2-NBDG uptake assays in U14 cells; type: cell-based, murine; settings: U14, 20 μM, 36 h
Experimental: as §1

N#Cc1ccc(-c2csc(N(CCCCCCC(=O)N3CCN(c4cccc5c4C(=O)N(C4CCC(=O)NC4=O)C5=O)CC3)N=C3CCCC3)n2)cc1 (stereo not drawn) [NP1192]
IC50 [1]: 9.95 µM
lactate levels (SiHa cells [2]): significantly decreased lactate levels
absorbtion rate (glucose analog 2-NBDG) (SiHa cells [2]; Figure 4K, DMSO 3.21): 1.94
colony formation capacity (SiHa cells [3]): substantial decrease in colony formation capacity
resistance index (RI = IC50 resistant/parental SiHa) (NP1192^Resist SiHa cells; 76.2/7.814): 9.75
IC50 (NP1192^Resist SiHa cells; Homo sapiens, NP1192^Resist SiHa cells): 76.2 µM
lactate levels (U14 cells): significantly decreased lactate levels
level of ATP production (U14 cells): increased markedly
absorbtion rate (glucose analog 2-NBDG) (U14 cells; Figure 4L, DMSO 9.57): 0.80
